US20210317140A1, “Heterocyclic Compounds and Methods of Use” (MEDIVATION TECHNOLOGIES, INC, priority 2013, published 2021)

What was measured:
PI3Kδ = target: T1, PI3Kδ (Homo sapiens, UniProt O00329); assay: PI3Kδ kinase assay (HTRF, PIP3 detection); format: biochemical; conditions: for PI3Kδ @ 0.01 μM (% Inh): 0.01 μM compound; for PI3Kδ @ 0.1 μM (% Inh): 0.1 μM compound; for IC50: 10 dose IC50, 10 μM ATP
T1 construct: purchased Reaction Biology Corporation
In short: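 10-dose HTRF assay; kinase preincubated with compound 10 min at RT, then reacted with 10 μM PIP2 and 10 μM ATP for 30 min at 30 °C in HEPES pH 7.0 buffer. PIP3 product displaces biotin-PIP3 from the Eu/APC complex; signal converted to PIP3 via standard curve, IC50 by nonlinear regression.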

CD69+B220+ cells = assay: B cell activation assay (IgD-stimulated splenocytes, CD69+B220+ cells by FACS); format: cell-based; conditions: mouse splenocytes, IgD 3 μg/mL, 4 h; for CD69 @ 100 nM (% Inh): 100 nM compound
Procedure: 1 Female mouse approximately 2 months old was euthanized with CO2 and the spleen removed. The tissue was homogenized with a polished glass microscope slide. The cells were collected in 5 mL complete medium (RPMI+10% FBS+pen/strep), placed in a 15 mL falcon tube and centrifuged at 500×g for 5 min. The supernatant was discarded and the pellet was resuspended in 3 mL of ACK lysis buffer (NH4Cl 0.17M, KHCO3 10 mM, EDTA-Na2 0.1 mM, pH 7.2), incubated at 37° C. for 5 min. 2 mL complete medium was added and the mixture centrifuged at 500×g for 5 min. The supernatant was discarded and the pellet resuspended in 1 mL complete medium. The mixture was passed through a […] cell strainer and collect in 50 mL falcon tube. Enough medium was added to have a total of 10 mL. The cells were counted and seeded in 24 or 48-well plate in 1 mL complete medium at 10^6 cells/mL. The plate was placed in a 37° C. incubator for 15 min. The cells were treated for 30 min at 37° C. with 100 nM test compound dissolved in 100% DMSO. 3 μL IgD (Accurate chemical and scientific corp.) was added at a final concentration of 3 μg/mL and the mixture incubated at 37° C. for 4 h. The cells were collected in 1.5 mL eppendorf tubes, centrifuged at 500×g for 5 min and then resuspended in 100 μL of PBS+2% FBS. The following antibodies were added: α-B220 PE (pharmingen #553090), α-CD69 APC (pharmingen #60689), live/dead fixable aqua dead cell stain kit (life technologies #L34957) all at 1:300, and the mixture incubated for 15 min at 4° C. in the dark. To this was added 900 μL of PBS+2% FBS and the mixture centrifuged at 500×g for 5 min. The supernatant was removed and the pellet resuspended in 300 μL of PBS+2% FBS and mixed well. The mixture was transferred to a cytometer tube. The samples were run in the FACS Canto II cytometer and quantified by the number of CD69+B220+ cells as a percentage of the total number of B220+ alive cells.

BTK = target: T2, BTK (Homo sapiens, UniProt Q06187); assay: BTK kinase assay (HotSpot, 33P ATP); format: biochemical; conditions: for BTK @ 0.01 μM (% Inh): 0.01 μM compound; for BTK @ 0.1 μM (% Inh): 0.1 μM compound; for IC50: 10 dose IC50, 10 μM ATP
T2 construct: purchased Reaction Biology Corporation
In short: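 In 20 mM Hepes (pH 7.5) with 10 mM MgCl2, 1 mM EGTA, 0.1 mM Na3VO4, 2 mM DTT, 0.02% Brij35, 0.02 mg/mL BSA and 1% DMSO, kinase and substrate were exposed to ten compound doses for 15–20 min.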

T2 sequence (Q06187 whole entry): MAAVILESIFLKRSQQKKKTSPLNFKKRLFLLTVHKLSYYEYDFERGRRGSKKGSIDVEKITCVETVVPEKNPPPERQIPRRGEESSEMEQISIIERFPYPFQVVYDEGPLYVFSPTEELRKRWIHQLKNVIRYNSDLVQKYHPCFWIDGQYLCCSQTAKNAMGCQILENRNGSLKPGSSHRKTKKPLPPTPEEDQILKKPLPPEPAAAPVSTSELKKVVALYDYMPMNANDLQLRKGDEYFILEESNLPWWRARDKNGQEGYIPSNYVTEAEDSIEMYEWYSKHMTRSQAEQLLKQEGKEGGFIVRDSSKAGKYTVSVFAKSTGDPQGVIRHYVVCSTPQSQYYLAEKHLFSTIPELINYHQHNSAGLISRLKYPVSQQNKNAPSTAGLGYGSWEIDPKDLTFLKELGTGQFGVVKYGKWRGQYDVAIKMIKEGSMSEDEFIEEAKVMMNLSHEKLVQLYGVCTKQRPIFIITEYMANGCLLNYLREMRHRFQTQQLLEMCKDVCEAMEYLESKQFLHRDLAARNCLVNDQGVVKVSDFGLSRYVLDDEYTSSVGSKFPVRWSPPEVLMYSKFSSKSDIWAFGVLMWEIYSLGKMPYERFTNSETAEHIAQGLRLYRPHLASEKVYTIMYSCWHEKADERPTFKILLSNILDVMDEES
T1 sequence (O00329 whole entry): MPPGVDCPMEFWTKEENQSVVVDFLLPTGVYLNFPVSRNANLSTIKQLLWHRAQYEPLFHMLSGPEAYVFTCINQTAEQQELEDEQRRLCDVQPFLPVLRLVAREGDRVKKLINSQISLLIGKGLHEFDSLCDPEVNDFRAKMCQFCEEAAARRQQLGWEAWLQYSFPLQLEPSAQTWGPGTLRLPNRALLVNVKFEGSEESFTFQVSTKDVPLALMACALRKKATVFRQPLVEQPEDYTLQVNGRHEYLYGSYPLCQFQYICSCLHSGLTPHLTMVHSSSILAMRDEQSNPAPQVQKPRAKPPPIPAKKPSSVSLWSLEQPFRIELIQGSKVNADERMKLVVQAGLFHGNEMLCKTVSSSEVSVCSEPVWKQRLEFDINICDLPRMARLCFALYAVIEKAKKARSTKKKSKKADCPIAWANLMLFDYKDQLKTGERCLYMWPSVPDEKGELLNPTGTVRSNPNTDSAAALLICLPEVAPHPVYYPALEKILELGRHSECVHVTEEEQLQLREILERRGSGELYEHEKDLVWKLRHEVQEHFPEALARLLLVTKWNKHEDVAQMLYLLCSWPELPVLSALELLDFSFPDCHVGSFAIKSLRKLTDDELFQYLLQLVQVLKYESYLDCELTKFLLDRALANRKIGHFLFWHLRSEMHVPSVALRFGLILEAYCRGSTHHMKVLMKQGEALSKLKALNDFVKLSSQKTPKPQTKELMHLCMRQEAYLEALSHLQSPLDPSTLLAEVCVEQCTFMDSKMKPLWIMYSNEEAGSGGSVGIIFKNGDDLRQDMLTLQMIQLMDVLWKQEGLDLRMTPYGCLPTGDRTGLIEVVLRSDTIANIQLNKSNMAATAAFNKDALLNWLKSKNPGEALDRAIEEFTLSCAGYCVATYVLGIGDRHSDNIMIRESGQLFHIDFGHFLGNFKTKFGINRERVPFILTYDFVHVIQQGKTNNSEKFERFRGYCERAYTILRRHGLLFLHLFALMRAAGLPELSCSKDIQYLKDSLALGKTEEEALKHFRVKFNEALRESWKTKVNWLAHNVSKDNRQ
T1 sequence (P27986 whole entry partner): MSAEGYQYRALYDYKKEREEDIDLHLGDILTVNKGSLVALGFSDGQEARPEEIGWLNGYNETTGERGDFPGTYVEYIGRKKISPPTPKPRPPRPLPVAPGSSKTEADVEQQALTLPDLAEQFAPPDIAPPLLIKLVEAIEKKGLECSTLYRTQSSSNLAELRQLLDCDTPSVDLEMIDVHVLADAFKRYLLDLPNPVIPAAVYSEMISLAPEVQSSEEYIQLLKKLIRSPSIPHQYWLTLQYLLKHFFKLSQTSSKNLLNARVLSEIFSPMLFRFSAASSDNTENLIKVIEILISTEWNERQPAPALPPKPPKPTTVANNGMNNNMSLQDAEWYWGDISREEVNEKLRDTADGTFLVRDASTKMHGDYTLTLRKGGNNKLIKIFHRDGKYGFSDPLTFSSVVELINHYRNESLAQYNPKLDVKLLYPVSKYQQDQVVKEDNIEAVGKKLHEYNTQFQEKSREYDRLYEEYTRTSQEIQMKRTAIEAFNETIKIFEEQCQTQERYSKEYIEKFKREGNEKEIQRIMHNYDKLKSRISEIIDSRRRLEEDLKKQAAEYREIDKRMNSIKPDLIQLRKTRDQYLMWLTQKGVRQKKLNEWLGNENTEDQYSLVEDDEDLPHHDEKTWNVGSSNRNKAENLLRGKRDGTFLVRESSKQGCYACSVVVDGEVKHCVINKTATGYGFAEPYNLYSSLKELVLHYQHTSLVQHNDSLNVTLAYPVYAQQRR

PI3Kδ @ 0.01 μM (% Inh) (PI3Kδ; 10 μM ATP)	PI3Kδ @ 0.1 μM (% Inh) (PI3Kδ; 10 μM ATP)	BTK @ 0.01 μM (% Inh) (BTK; 10 μM ATP)	BTK @ 0.1 μM (% Inh) (BTK; 10 μM ATP)	IC50 (PI3Kδ) [nM]	IC50 (BTK) [nM]	IC50 (CD69+B220+ cells; Splenocyte) [nM]	PI3Kδ @ 1 μM (% Inh) (PI3Kδ; 1 μM compound, 10 μM ATP)	BTK @ 1 μM (% Inh) (BTK; 1 μM compound, 10 μM ATP)	Structure (SMILES)	CD69 @ 100 nM (% Inh) (CD69+B220+ cells)	CD69 @ 100 nM (% Inh) (CD69+B220+ cells; 0.1 µM)
8.3	19.42	6.57	18.99						Nc1ncnc2c1c(-c1cc(F)c3c(c1)NC(=O)CO3)nn2C1Cc2ccccc2C1 [compound 129, 6-[4-amino-1-(2,3-dihydro-1H-inden-2-yl)-1H-pyrazolo[3,4-d]pyrimidin-3-yl]-8-fluoro-3,4-dihydro-2H-1,4-benzoxazin-3-one]	12.5 ± 13.16 (n = 3) % Inh	
6.65	70.68	10.59	47.8	77.9	71.8				NC(=O)c1cc(-c2cn(C3Cc4ccccc4C3)c3ncnc(N)c23)cc(O)c1F [compound 116, 5-[4-amino-7-(2,3-dihydro-1H-inden-2-yl)-7H-pyrrolo[2,3-d]pyrimidin-5-yl]-2-fluoro-3-hydroxybenzamide]	20.48 ± 16.90 (n = 3) % Inh	
				14.8	1210				Nc1ncnc2c1c(-c1ccc3[nH]cnc3c1)nn2C1CCc2ccccc2C1 (single isomer, unassigned) [Compound No. 19a, 3-(1H-benzo[d]imidazol-5-yl)-1-(1,2,3,4-tetrahydronaphthalen-2-yl)-1H-pyrazolo[3,4-d]pyrimidin-4-amine]		24.62 ± 10.79 (n = 6) % Inh
70.35	91.77	21.71	70.28						Nc1ncnc2c1c(-c1cc(O)c(F)c(F)c1)nn2C1CCc2ccccc2C1 (stereo not shown) [compound 119, 5-[4-amino-1-(1,2,3,4-tetrahydronaphthalen-2-yl)-1H-pyrazolo[3,4-d]pyrimidin-3-yl]-2,3-difluorophenol]	47.52 ± 5.57 (n = 3) % Inh	
53.08	90.11	−1.03	−0.64	0.269		104.5 ± 0.7			N#Cc1cc(-c2nn(C3CCc4ccccc4C3)c3ncnc(N)c23)cc(O)c1F (stereo not shown) [compound 130, 5-[4-amino-1-(1,2,3,4-tetrahydronaphthalen-2-yl)-1H-pyrazolo[3,4-d]pyrimidin-3-yl]-2-fluoro-3-hydroxybenzonitrile]	67.53 ± 15.54 (n = 3) % Inh	
	34.17		26.99	1	190		76.31	72.83	Nc1ncnc2c1c(-c1ccc(Br)c(O)c1)nn2C1CCc2ccccc21 (single isomer, unassigned) [36a, 5-[4-amino-1-(2,3-dihydro-1H-inden-1-yl)-1H-pyrazolo[3,4-d]pyrimidin-3-yl]-2-bromophenol]	1.63 ± 7.31 (n = 3) % Inh	
8.34	52.39	4.47	34.18						Nc1ncnc2c1c(-c1cc(F)c3c(c1)NCCO3)nn2C1CCc2ccccc2C1 (stereo not shown) [compound 124, 3-(8-fluoro-3,4-dihydro-2H-1,4-benzoxazin-6-yl)-1-(1,2,3,4-tetrahydronaphthalen-2-yl)-1H-pyrazolo[3,4-d]pyrimidin-4-amine]	14.44 ± 2.64 (n = 3) % Inh	
41.19	84.46	41.16	86.29	23.2	20.2				Nc1ncnc2c1c(-c1cc(O)c(F)c(F)c1)cn2C1CCc2ccccc2C1 (stereo not shown) [compound 114, 5-[4-amino-7-(1,2,3,4-tetrahydronaphthalen-2-yl)-7H-pyrrolo[2,3-d]pyrimidin-5-yl]-2,3-difluorophenol]	10.19 ± 13.54 (n = 3) % Inh	
